Marks after values point to notes of the source that are not given here.
Test system: patients with relapsed and/or refractory lymphoma or MM
Test: Safety: adverse events graded by NCI CTCAE version 3.0
[1] = Schedule A, n=27, high-level term

NS(=O)(=O)OC[C@@H]1C[C@@H](n2ccc3c(N[C@H]4CCc5ccccc54)ncnc32)C[C@@H]1O [pevonedistat]
12 (44) n (%): ALT increased, All grades (Schedule A, n=27) | AST increased, All grades (Schedule A, n=27) | Nausea, All grades (Schedule A, n=27)
11 (41) n (%): Pyrexia, All grades (Schedule A, n=27)
2 (12) n (%): AST increased, All grades (Schedule B, n=17)
4 (24) n (%): ALT increased, All grades (Schedule B, n=17)
4 (15) n (%): Blood creatinine increased, All grades (Schedule A, n=27) | Hyperkalemia, All grades (Schedule A, n=27) | Muscle spasms, All grades (Schedule A, n=27) | Pain in extremity, All grades (Schedule A, n=27)
1 (4) n (%): Abdominal discomfort, All grades (Schedule A, n=27) | Diarrhea, Grade ≥3 (Schedule A, n=27) | Dyspnea, Grade ≥3 (Schedule A, n=27) | Hyperbilirubinemia, All grades (Schedule A, n=27) | Hyperkalemia, Grade ≥3 (Schedule A, n=27) | Pain, Grade ≥3 (Schedule A, n=27) | Pneumonia, All grades (Schedule A, n=27) | Pneumonia, Grade ≥3 (Schedule A, n=27) | Sinus tachycardia, Grade ≥3 (Schedule A, n=27) | Thrombocytopenia, Grade ≥3 (Schedule A, n=27) | Weight decreased, All grades (Schedule A, n=27)
1 (4) ^a n (%): ALT increased, Grade ≥3 (Schedule A, n=27, 1 DLT) | Muscle spasms, Grade ≥3 (Schedule A, n=27, 1 DLT)
3 (18) n (%): Abdominal discomfort, All grades (Schedule B, n=17)
10 (37) n (%): Constipation, All grades (Schedule A, n=27) | Myalgia, All grades (Schedule A, n=27)
16 (59) n (%): Any AE, Grade ≥3 (Schedule A, n=27)
0 n (%): Abdominal discomfort, Grade ≥3 (Schedule A, n=27) | Asthenia, Grade ≥3 (Schedule A, n=27) | Back pain, Grade ≥3 (Schedule A, n=27) | Blood alkaline phosphatase increased, Grade ≥3 (Schedule A, n=27) | Blood creatinine increased, Grade ≥3 (Schedule A, n=27) | Chills, Grade ≥3 (Schedule A, n=27) | Constipation, Grade ≥3 (Schedule A, n=27) | Cough, Grade ≥3 (Schedule A, n=27) | Decreased appetite, Grade ≥3 (Schedule A, n=27) | Dehydration, Grade ≥3 (Schedule A, n=27) | Dizziness, Grade ≥3 (Schedule A, n=27) | Dyspepsia, All grades (Schedule A, n=27) | Dyspepsia, Grade ≥3 (Schedule A, n=27) | Dyspnea exertional, All grades (Schedule A, n=27) | Dyspnea exertional, Grade ≥3 (Schedule A, n=27) | Headache, Grade ≥3 (Schedule A, n=27) | Hyperbilirubinemia, Grade ≥3 (Schedule A, n=27) | Hypomagnesemia, Grade ≥3 (Schedule A, n=27) | Insomnia, Grade ≥3 (Schedule A, n=27) | Myalgia, Grade ≥3 (Schedule A, n=27) | Nausea, Grade ≥3 (Schedule A, n=27) | Pain in extremity, Grade ≥3 (Schedule A, n=27) | Paresthesia, Grade ≥3 (Schedule A, n=27) | Peripheral edema, Grade ≥3 (Schedule A, n=27) | Productive cough, Grade ≥3 (Schedule A, n=27) | Pyrexia, Grade ≥3 (Schedule A, n=27) | Upper respiratory tract infection, Grade ≥3 (Schedule A, n=27) | Vision blurred, Grade ≥3 (Schedule A, n=27) | Vomiting, Grade ≥3 (Schedule A, n=27) | Weight decreased, Grade ≥3 (Schedule A, n=27) | Peripheral neuropathies NEC, Grade ≥3 [1] | AST increased, Grade ≥3 (Schedule B, n=17)
6 (22) n (%): Blood alkaline phosphatase increased, All grades (Schedule A, n=27) | Decreased appetite, All grades (Schedule A, n=27) | Dizziness, All grades (Schedule A, n=27) | Hypomagnesemia, All grades (Schedule A, n=27) | Pain, All grades (Schedule A, n=27)
18 (67) n (%): Fatigue, All grades (Schedule A, n=27)
1 (6) n (%): ALT increased, Grade ≥3 (Schedule B, n=17)
7 (26) n (%): Anemia, All grades (Schedule A, n=27) | Diarrhea, All grades (Schedule A, n=27) | Headache, All grades (Schedule A, n=27) | Vomiting, All grades (Schedule A, n=27)
2 (7) n (%): Asthenia, All grades (Schedule A, n=27) | Cough, All grades (Schedule A, n=27) | Dehydration, All grades (Schedule A, n=27) | Fatigue, Grade ≥3 (Schedule A, n=27) | Hypercalcemia, Grade ≥3 (Schedule A, n=27) | Neutropenia, All grades (Schedule A, n=27) | Neutropenia, Grade ≥3 (Schedule A, n=27) | Paresthesia, All grades (Schedule A, n=27) | Productive cough, All grades (Schedule A, n=27) | Sinus tachycardia, All grades (Schedule A, n=27)
2 (7) ^a n (%): AST increased, Grade ≥3 (Schedule A, n=27, 1 DLT)
3 (11) n (%): Back pain, All grades (Schedule A, n=27) | Hypophosphatemia, Grade ≥3 (Schedule A, n=27) | Insomnia, All grades (Schedule A, n=27) | Peripheral edema, All grades (Schedule A, n=27) | Thrombocytopenia, All grades (Schedule A, n=27) | Upper respiratory tract infection, All grades (Schedule A, n=27) | Peripheral neuropathies NEC, All grades [1]
5 (19) n (%): Anemia, Grade ≥3 (Schedule A, n=27) | Chills, All grades (Schedule A, n=27) | Dyspnea, All grades (Schedule A, n=27) | Hypercalcemia, All grades (Schedule A, n=27) | Hypophosphatemia, All grades (Schedule A, n=27) | Vision blurred, All grades (Schedule A, n=27)
27 (100) n (%): Any AE, All grades (Schedule A, n=27)
